Test results from patent publication US5514662A, “Use of amphotericin B derivatives as protease inhibitors” (priority 1991, dated 1996).
Where two headings read alike, the source gives them in different places.

Key:
trypsin = molecular target: T1, trypsin (Bos taurus, UniProt P00760); experiment: Inhibition of trypsin; format: biochemical
T1 sequence (P00760 24-246): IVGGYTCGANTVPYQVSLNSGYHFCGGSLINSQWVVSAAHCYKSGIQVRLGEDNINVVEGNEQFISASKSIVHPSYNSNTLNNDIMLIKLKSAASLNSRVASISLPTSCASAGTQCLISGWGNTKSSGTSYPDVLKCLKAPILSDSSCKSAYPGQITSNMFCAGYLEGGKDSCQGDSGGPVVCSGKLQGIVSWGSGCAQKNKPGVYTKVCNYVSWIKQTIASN

chymotrypsin = experiment: Activity of DABF-AmB on various proteases: chymotrypsin; format: biochemical; conditions: 1 μM
Protocol: (§1) DABF-AmB was tested, at a concentration of 1 μM, on various proteases (papain, chymotrypsin, kallicrein, leucocyte elastase, cathopsin D and recombinant protease p10) under conditions and in the presence of substrates appropriate for each of the proteases tested.

papain = papain (Carica papaya, UniProt P00784); experiment: Activity of DABF-AmB on various proteases: papain; format: biochemical; conditions: 1 μM
Protocol: as §1

LAV/BRU strain of HIV-1 = experiment: Reverse transcriptase activity in supernatants of HIV-1 infected Jurkat and CEM cells; format: cell-based
Protocol: The T cells (Jurkat and CEM) used are very permissive to HIV infection. They are cultured in RPMI 1640 medium supplemented with 10% foetal calf serum, 2 mM of glutamine and a mixture of penicillin and streptomycin. The peripheral blood mononuclear cells are obtained from blood from healthy donors, isolated on a Ficoll Hypaque gradient and stimulated with 10 μg/ml of phytohaemagglutinin A (PHA), for two days, in RPMI 1640 medium supplemented, prior to the infection by HIV, with amikacin and vancomycin (10 mg/ml), polybrene (1 mg/ml) and anti-interferon gamma serum (5 U/ml). After infection, the PBMCs are cultured (10^5 per well) in flat-bottomed 96-well plates in the same RPMI 1640 medium (200 μl per well).
Infectious preparations of the LAV/Bru strain of HIV-1 are obtained from chronically infected CEM cell (clone 13) culture supernatants filtered through a 0.45-μm filter.
(§2) For the infection, fresh Jurkat or CEM type cells are centrifuged and the pellet is incubated for 2 hours at 37° C. with the viral preparation (10000 cpm of reverse transcriptase activity/10^6 cells, which corresponds to a multiplicity of infection of 0.04 to 0.1). The cells are then washed and resuspended (0.5×10^6/ ml) in fresh culture medium. Reverse transcriptase activity is determined at specific times after the infection, using the acellular infected cell supernatant.
The reverse transcriptase activity is determined at the indicated times using the culture supernatant, according to the procedure described by REY et al., Biochem. Res. Comm. 121, 126-133 (1984).
The Jurkat and CEM type T cells are infected with the LAV/BRU strain of HIV-1.
Viral infection and replication are monitored by measuring the reverse transcriptase activity in the culture supernatants.
To measure the anti-HIV activity of DABF-AmB, infected cells are cultured in the presence of increasing doses (between 0.1 μM and 100 μM) of the product; […] kept constant during the infection by carrying out a one half dilution, every 3 days, of the growing cells in fresh medium containing the desired concentration.
The corresponding results are illustrated in FIGS. 3b and 3d: the reverse transcriptase activity measured on the 8th day of the viral infection is represented on the y axis and the DABF-AmB concentration on the x axis.

Jurkat cells = experiment: Cell viability of Jurkat cells; format: cell-based, human; conditions: concentrations above 100 μM
From the text: (§3) Cell viability was estimated at the same time. […] It therefore appears that DABF-AmB inhibits the replication of HIV at doses which are not cytotoxic.

CEM cells = experiment: Cell viability of CEM cells; format: cell-based, human; conditions: concentrations above 100 μM
From the text: as §3

viral antigen p24 = experiment: Expression of soluble viral antigen p24 in HIV-1 infected Jurkat and CEM cells; format: cell-based
Protocol: as §2
The viral antigen p24 was quantified in the infected-cell supernatant by radioimmunological assay using the procedure recommended by the manufacturer (ABBOTT, Diagnostics Division).
The expression of the soluble viral antigen p24 was investigated at the same time as the reverse transcriptase activity, in the cell culture supernatants.
The AmB treatment is carried out under the same conditions as the DABF-AmB treatment.
In another experiment, 10 μM of DABF-AmB are added either during pretreatment 24 hours before the infection, or alternatively during the 2-hour inoculation stage, or alternatively during continuous treatment, as described above, for 12 days following the infection.

HIV2-rod = experiment: Formation of syncytia in HUT78 cells infected with HIV2-rod; format: cell-based, HIV-2
Protocol: HUT78 cells were inoculated in 96-well plates in an amount of 2×10^4 cells per well, in […]. They were infected with various viral concentrations and DABF-AmB was added immediately after the infection, at various concentrations. The formation of syncytia was evaluated after 3 and 5 days by direct reading under an inverted microscope (semi-quantitative test).

AZT-resistant strains = experiment: Infection of PBMCs by AZT-resistant HIV-1; format: cell-based; conditions: 10 μM, RT activity after 10 days
Protocol: PBMCs were infected under the conditions described above in the general procedures, with various HIV-1 isolates derived from patients, or identified as resistant to AZT. The anti-viral effect of DABF-AmB was determined by measuring the RT activity in the supernatants after 10 days of culture.

HRV14 = experiment: Direct virucidal effect on HRV14 (preincubation of virus); format: cell-based; conditions: HRV14 preincubated 5 hours at 37° C.
Protocol: When the suspension of HRV14 is preincubated at 37° C. in the presence of DABF-AmB for 5 hours, no inhibition of the cytopathogenic effect is observed compared with a control suspension incubated under the same conditions in the absence of DABF-AmB.

[1] = 10 μM added during the 2-hour inoculation stage
[2] = 10 μM added prior to infection (24 hours pretreatment)

papain, sequence (P00784 134-345): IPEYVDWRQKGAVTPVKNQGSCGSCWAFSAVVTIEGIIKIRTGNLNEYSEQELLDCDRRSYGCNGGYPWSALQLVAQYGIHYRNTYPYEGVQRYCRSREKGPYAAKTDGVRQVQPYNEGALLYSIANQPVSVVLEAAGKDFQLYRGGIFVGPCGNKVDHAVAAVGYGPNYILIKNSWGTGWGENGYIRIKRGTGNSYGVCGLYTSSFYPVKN

For C[C@@H]1[C@H](O)[C@@H](C)/C=C/C=C/C=C/C=C/C=C/C=C/C=C/[C@H](O[C@@H]2O[C@H](C)[C@@H](O)[C@H](NCC(=O)[C@@H](O)[C@@H]3OC(c4ccccc4)OC[C@H]3O)[C@@H]2O)C[C@@H]2O[C@](O)(C[C@@H](O)C[C@@H](O)[C@H](O)CC[C@@H](O)C[C@@H](O)CC(=O)O[C@H]1C)C[C@H](O)[C@H]2C(=O)O (stereo partly drawn) [DABF-AmB, 1-deoxy-1-amino-4,6-O-benzylidene-D-fructosyl-AmB], the inhibition at 1 µM (trypsin; 1 μM, FIG. 1, read-out: % inhibition of trypsin relative to a control without inhibitor) was > 60%, the inhibition at 100 µM (trypsin; 10^-4 M) was 100% and the “inhibition of trypsin (in words)” value (trypsin; 10^-4 M) was “Total inhibition”. For the same compound, the inhibition at 10 µM (trypsin; 10^-5 M) was 95%, the inhibition at 1 µM (trypsin; 10^-6 M, read-out: % of inhibition of trypsin) was 50% and the inhibition at 0.1 µM (trypsin; 10^-7 M) was 20%. The inhibition of chymotrypsin (chymotrypsin) was “does not inhibit”, the inhibition of papain (papain) was “does not inhibit” and the “inhibition of reverse transcriptase activity” value (LAV/BRU strain of HIV-1; [1]) was “does not bring about any significant inhibition”. The “inhibition of reverse transcriptase activity” value (LAV/BRU strain of HIV-1; [2]) was “does not bring about any significant inhibition”, the inhibition at 10 µM (LAV/BRU strain of HIV-1; Human immunodeficiency virus 1, 192 h, Jurkat and CEM cells, 10 μM, 8th day, N=4) was 88% and the minimal effective concentration (LAV/BRU strain of HIV-1; Human immunodeficiency virus 1, 192 h, Jurkat and CEM cells, 8th day, read-out: concentration from which inhibition of reverse transcriptase activity is observed) was ≥ 5 µM. The “inhibition of reverse transcriptase activity (in words)” value (LAV/BRU strain of HIV-1; Jurkat and CEM cells, concentrations below 1 μM) was “No significant inhibition”, the cytotoxic effect (Jurkat cells) was “no cytotoxic effect” and the cytotoxic effect (CEM cells) was “no cytotoxic effect”. For the same compound, the “inhibition of p24 secretion” value (viral antigen p24; [1]) was “does not bring about any significant inhibition”, the “inhibition of p24 secretion” value (viral antigen p24; [2]) was “does not bring about any significant inhibition” and the minimal effective concentration (viral antigen p24; Human immunodeficiency virus 1, 288 h, read-out: concentration for significant inhibition of p24) was > 5 µM. For the same compound, the “efficacy on the multiplication of HIV compared with AmB” value (viral antigen p24; p24, 10 μM, 4 and 8 days) was “substantially greater than that of AmB”, the formation of syncytia (HIV2-rod; 5 μM, 10 TCID50, 3 days) was “- and +” and the formation of syncytia (HIV2-rod; 5 μM, 10 TCID50, 5 days) was “- and +”. For the same compound, the formation of syncytia (HIV2-rod; 5 μM, 100 TCID50, 3 days) was “+”, the formation of syncytia (HIV2-rod; 10 μM, 10 TCID50, 3 days) was “-” and the formation of syncytia (HIV2-rod; 10 μM, 10 TCID50, 5 days) was “-”. The formation of syncytia (HIV2-rod; 10 μM, 100 TCID50, 3 days) was “+ and -”, the formation of syncytia (HIV2-rod; 50 μM, 10 TCID50, 5 days) was “-” and the formation of syncytia (HIV2-rod; 50 μM, 100 TCID50, 3 days) was “-”. For the same compound, the formation of syncytia (HIV2-rod; 50 μM, 100 TCID50, 5 days) was “-”, the formation of syncytia (HIV2-rod; 100 μM, 100 TCID50, 3 days) was “-” and the formation of syncytia (HIV2-rod; 100 μM, 100 TCID50, 5 days) was “-”. For the same compound, the “inhibition of formation of syncytia (in words)” value (HIV2-rod; HUT78, HIV-2) was “in a dose-dependent manner”, the “inhibition of infection of PBMC” value (AZT-resistant strains) was “this inhibition is also produced in the case of AZT-resistant strains” and the “inhibition of the cytopathogenic effect after preincubation of virus (direct virucidal effect)” value (HRV14) was “no direct virucidal effect”.
